Reference: patent US20220132846A1, “1-PYRIDYL-PYRAZOLYL AMIDE COMPOUNDS AND PREPARATION AND USES THEREOF” (HUNAN RESEARCH INSTITUTE OF CHEMICAL INDUSTRY CO., LTD., priority 2019, published 2022)

How the values were obtained:
Aphis fabae = test: Test against aphid, leaf dip method (Aphis fabae); type: in vivo; conditions: foliar; for mortality at 12.5 µg/mL: 12.5 mg/L; for mortality at 12.5 µg/mL / mortality at 50 µg/mL / mortality at 200 µg/mL / mortality at 500 µg/mL: after 24 hours, read-out: Activity (mortality) level against Aphis fabae; for mortality at 50 µg/mL: 50 mg/L; for mortality at 200 µg/mL: 200 mg/L; for mortality at 500 µg/mL: 500 mg/L; for LC50: further test, read-out: LC50 against Aphis fabae
Experimental: For evaluating the activity of the compounds of this invention against Homoptera pests, Aphis fabae, wheat aphids, etc. were selected as the test insects, and the activity of the compounds of this invention against aphids was measured by leaf dip method indoors.
Leaf dip method (Aphis fabae): the test compound was dissolved in an appropriate solvent such as N,N-dimethylformamide, and then diluted with 0.2% aqueous solution of Tween 80 to the desired concentration, Those without the test compounds were set as blank controls, the treatments were replicated 3 times. Horsebean seedlings with no less than twenty 3-day-old Aphis fabae per plant was cut from the stem, 5 horsebean seedlings with the insects were dipped in the test solution for 5 seconds, then inserted into a sponge filled with water after sucked dry using filter paper, then covered with a glass tube and placed in a chamber for culture. After 24 hours, the number of living and dead insects were investigated and the results were averaged. […]

[1] = system: Armyworm (Mythimna separata (Walker)); test: Test against armyworm, Potter tower method; type: in vivo; conditions: for mortality at 50 µg/mL / mortality at 500 µg/mL / mortality at 12.5 µg/mL: Mythimna separata, third-instar larvae, after 72 hours, read-out: Activity (mortality) level against armyworm; for mortality at 50 µg/mL: 50 mg/L; for mortality at 500 µg/mL: 500 mg/L; for mortality at 12.5 µg/mL: 12.5 mg/L
Experimental: Potter tower method: the test compound was dissolved in an appropriate solvent such as N,N-dimethylformamide, and then diluted with 0.2% aqueous solution of Tween 80 to the desired concentration, Those without the test compounds were set as blank controls. The fresh and tender corn leaves were taken and cut into fragments of basically the same size, then put into a Petri dish (diameter 90 mm) padded with filter paper in advance. Ten third-instar larvae of test insects were transferred into the dish and then placed under the Potter spray tower for being sprayed, each concentration treatment was sprayed at the amount of 1 mL and replicated 3 times. The dish was covered and then placed in a chamber for culture and observed regularly, after 72 hours, the dead insects was investigated and recorded and the mean mortality was calculated. […]

| Structure (SMILES) | mortality at 12.5 µg/mL (Aphis fabae) | mortality at 50 µg/mL (Aphis fabae) | mortality at 200 µg/mL (Aphis fabae) | mortality at 500 µg/mL (Aphis fabae) | mortality at 50 µg/mL [1] | mortality at 500 µg/mL [1] | mortality at 12.5 µg/mL [1] | LC50 (Aphis fabae) | Activity against armyworm, further screening (in words) ([1]; compared with chlorantraniliprole (D1)) |
| --- | --- | --- | --- | --- | --- | --- | --- | --- | --- |
| CCCNC(=O)c1cc(Cl)cc(Br)c1N(C)C(=O)c1cc(Br)nn1-c1ncccc1Cl [Compound 27, N-[2-bromo-4-chloro-6-[(propylamino)carbonyl]phenyl]-N-methyl-1-(3-chloro-2-pyridinyl)-3-bromo-1H-pyrazole-5-carboxamide] | 90 to 100% | 90 to 100% | 90 to 100% | 90 to 100% | 90 to 100% | 90 to 100% | – | – | – |
| CC(C)NC(=O)c1cc(Cl)cc(Br)c1N(C)C(=O)c1ccnn1-c1ncccc1Cl [Compound 28, N-[2-bromo-4-chloro-6-[(isopropylamino)carbonyl]phenyl]-N-methyl-1-(3-chloro-2-pyridinyl)-1H-pyrazole-5-carboxamide] | – | – | 90 to 100% | 90 to 100% | 90 to 100% | 90 to 100% | 90 to 100% | – | – |
| CN(C(=O)c1cc(Br)nn1-c1ncccc1Cl)c1c(Br)cc(Cl)cc1C(=O)NC1CC1 [Compound 29, N-[2-bromo-4-chloro-6-[(cyclopropylamino)carbonyl]phenyl]-N-methyl-1-(3-chloro-2-pyridinyl)-3-bromo-1H-pyrazole-5-carboxamide] | – | – | 90 to 100% | 90 to 100% | 90 to 100% | 90 to 100% | 90 to 100% | – | – |
| CCCCNC(=O)c1cc(Cl)cc(Br)c1N(C)C(=O)c1ccnn1-c1ncccc1Cl [Compound 30, N-[2-bromo-4-chloro-6-[(butylamino)carbonyl]phenyl]-N-methyl-1-(3-chloro-2-pyridinyl)-1H-pyrazole-5-carboxamide] | – | – | 90 to 100% | 90 to 100% | – | 90 to 100% | – | – | – |
| CN(C)C(=O)c1cc(Cl)cc(Br)c1N(C)C(=O)c1cc(Br)nn1-c1ncccc1Cl [Compound 31, N-[2-bromo-4-chloro-6-[(dimethylamino)carbonyl]phenyl]-N-methyl-1-(3-chloro-2-pyridinyl)-3-bromo-1H-pyrazole-5-carboxamide] | 90 to 100% | 90 to 100% | 90 to 100% | 90 to 100% | – | 90 to 100% | – | < 1 µg/mL | – |
| CCCN(C)C(=O)c1cc(Cl)cc(Br)c1N(C)C(=O)c1cc(Br)nn1-c1ncccc1Cl [Compound 33, N-[2-bromo-4-chloro-6-[(methyl(propyl)amino)carbonyl]phenyl]-N-methyl-1-(3-chloro-2-pyridinyl)-3-bromo-1H-pyrazole-5-carboxamide] | 90 to 100% | 90 to 100% | 90 to 100% | 90 to 100% | 90 to 100% | 90 to 100% | – | – | – |
| CC(C)N(C)C(=O)c1cc(Cl)cc(Br)c1N(C)C(=O)c1cc(Br)nn1-c1ncccc1Cl [Compound 34, N-[2-bromo-4-chloro-6-[(methyl(isopropyl)amino)carbonyl]phenyl]-N-methyl-1-(3-chloro-2-pyridinyl)-3-bromo-1H-pyrazole-5-carboxamide] | 90 to 100% | 90 to 100% | 90 to 100% | 90 to 100% | 90 to 100% | 90 to 100% | – | < 1 µg/mL | – |
| CN(C(=O)c1cc(Br)nn1-c1ncccc1Cl)c1c(Br)cc(Cl)cc1C(=O)N(C)C1CC1 [Compound 35, N-[2-bromo-4-chloro-6-[(methyl(cyclopropyl)amino)carbonyl]phenyl]-N-methyl-1-(3-chloro-2-pyridinyl)-3-bromo-1H-pyrazole-5-carboxamide] | 90 to 100% | 90 to 100% | 90 to 100% | 90 to 100% | 90 to 100% | 90 to 100% | – | – | – |
| CN(C(=O)c1cc(Br)nn1-c1ncccc1Cl)c1c(Br)cc(Cl)cc1C(=O)N(C)C(C)(C)C [Compound 36, N-[2-bromo-4-chloro-6-[(methyl(tert-butyl)amino)carbonyl]phenyl]-N-methyl-1-(3-chloro-2-pyridinyl)-3-bromo-1H-pyrazole-5-carboxamide] | – | 90 to 100% | 90 to 100% | 90 to 100% | 90 to 100% | 90 to 100% | – | – | – |
| CCN(CC)C(=O)c1cc(Cl)cc(Br)c1N(C)C(=O)c1cc(Br)nn1-c1ncccc1Cl [Compound 37, N-[2-bromo-4-chloro-6-[(diethylamino)carbonyl]phenyl]-N-methyl-1-(3-chloro-2-pyridinyl)-3-bromo-1H-pyrazole-5-carboxamide] | 90 to 100% | 90 to 100% | 90 to 100% | 90 to 100% | 90 to 100% | 90 to 100% | 90 to 100% | – | – |
| CCN(C(=O)c1cc(Br)nn1-c1ncccc1Cl)c1c(Br)cc(Cl)cc1C(=O)N(C)C [Compound 38, N-[2-bromo-4-chloro-6-[(dimethylamino)carbonyl]phenyl]-N-ethyl-1-(3-chloro-2-pyridinyl)-3-bromo-1H-pyrazole-5-carboxamide] | 90 to 100% | 90 to 100% | 90 to 100% | 90 to 100% | 90 to 100% | 90 to 100% | – | – | – |
| CCN(C)C(=O)c1cc(Cl)cc(Br)c1N(CC)C(=O)c1cc(Br)nn1-c1ncccc1Cl [Compound 39, N-[2-bromo-4-chloro-6-[(methyl(ethyl)amino)carbonyl]phenyl]-N-ethyl-1-(3-chloro-2-pyridinyl)-3-bromo-1H-pyrazole-5-carboxamide] | 90 to 100% | 90 to 100% | 90 to 100% | 90 to 100% | 90 to 100% | 90 to 100% | – | – | – |
| CCN(CC)C(=O)c1cc(Cl)cc(Br)c1N(CC)C(=O)c1cc(Br)nn1-c1ncccc1Cl [Compound 40, N-[2-bromo-4-chloro-6-[(diethylamino)carbonyl]phenyl]-N-ethyl-1-(3-chloro-2-pyridinyl)-3-bromo-1H-pyrazole-5-carboxamide] | 90 to 100% | 90 to 100% | 90 to 100% | 90 to 100% | 90 to 100% | 90 to 100% | 90 to 100% | – | excellent activity |
| CCCN(C(=O)c1cc(Br)nn1-c1ncccc1Cl)c1c(Br)cc(Cl)cc1C(=O)N(C)C [Compound 41, N-[2-bromo-4-chloro-6-[(dimethylamino)carbonyl]phenyl]-N-propyl-1-(3-chloro-2-pyridinyl)-3-bromo-1H-pyrazole-5-carboxamide] | 90 to 100% | 90 to 100% | 90 to 100% | 90 to 100% | 90 to 100% | 90 to 100% | – | – | – |
| CNC(=O)c1cc(Cl)cc(C)c1N(C)C(=O)c1cc(Br)nn1-c1ncccc1Cl [Compound 42, N-[2-methyl-4-chloro-6-[(methylamino)carbonyl]phenyl]-N-methyl-1-(3-chloro-2-pyridinyl)-3-bromo-1H-pyrazole-5-carboxamide] | 90 to 100% | 90 to 100% | 90 to 100% | 90 to 100% | 90 to 100% | 90 to 100% | 90 to 100% | – | – |
| CCNC(=O)c1cc(Cl)cc(C)c1N(C)C(=O)c1cc(Br)nn1-c1ncccc1Cl [Compound 43, N-[2-methyl-4-chloro-6-[(ethylamino)carbonyl]phenyl]-N-methyl-1-(3-chloro-2-pyridinyl)-3-bromo-1H-pyrazole-5-carboxamide] | – | – | – | 90 to 100% | 90 to 100% | 90 to 100% | – | – | – |
| Cc1cc(Cl)cc(C(=O)N(C)C)c1N(C)C(=O)c1cc(Br)nn1-c1ncccc1Cl [Compound 44, N-[2-methyl-4-chloro-6-[(dimethylamino)carbonyl]phenyl]-N-methyl-1-(3-chloro-2-pyridinyl)-3-bromo-1H-pyrazole-5-carboxamide] | – | – | – | 90 to 100% | 90 to 100% | 90 to 100% | – | – | – |
| CCN(C)C(=O)c1cc(Cl)cc(C)c1N(C)C(=O)c1cc(Br)nn1-c1ncccc1Cl [Compound 45, N-[2-methyl-4-chloro-6-[(methyl(ethyl)amino)carbonyl]phenyl]-N-methyl-1-(3-chloro-2-pyridinyl)-3-bromo-1H-pyrazole-5-carboxamide] | – | – | – | 90 to 100% | – | 90 to 100% | – | – | – |
